# Reference: BindingDB's records for doi:10.1021/acs.jmedchem.1c01951 (University of South Carolina, 2022)
# Biological target: T1, Myosin-IIIb (Homo sapiens, UniProt Q8WXR4)
# T1 sequence (Q8WXR4 whole entry): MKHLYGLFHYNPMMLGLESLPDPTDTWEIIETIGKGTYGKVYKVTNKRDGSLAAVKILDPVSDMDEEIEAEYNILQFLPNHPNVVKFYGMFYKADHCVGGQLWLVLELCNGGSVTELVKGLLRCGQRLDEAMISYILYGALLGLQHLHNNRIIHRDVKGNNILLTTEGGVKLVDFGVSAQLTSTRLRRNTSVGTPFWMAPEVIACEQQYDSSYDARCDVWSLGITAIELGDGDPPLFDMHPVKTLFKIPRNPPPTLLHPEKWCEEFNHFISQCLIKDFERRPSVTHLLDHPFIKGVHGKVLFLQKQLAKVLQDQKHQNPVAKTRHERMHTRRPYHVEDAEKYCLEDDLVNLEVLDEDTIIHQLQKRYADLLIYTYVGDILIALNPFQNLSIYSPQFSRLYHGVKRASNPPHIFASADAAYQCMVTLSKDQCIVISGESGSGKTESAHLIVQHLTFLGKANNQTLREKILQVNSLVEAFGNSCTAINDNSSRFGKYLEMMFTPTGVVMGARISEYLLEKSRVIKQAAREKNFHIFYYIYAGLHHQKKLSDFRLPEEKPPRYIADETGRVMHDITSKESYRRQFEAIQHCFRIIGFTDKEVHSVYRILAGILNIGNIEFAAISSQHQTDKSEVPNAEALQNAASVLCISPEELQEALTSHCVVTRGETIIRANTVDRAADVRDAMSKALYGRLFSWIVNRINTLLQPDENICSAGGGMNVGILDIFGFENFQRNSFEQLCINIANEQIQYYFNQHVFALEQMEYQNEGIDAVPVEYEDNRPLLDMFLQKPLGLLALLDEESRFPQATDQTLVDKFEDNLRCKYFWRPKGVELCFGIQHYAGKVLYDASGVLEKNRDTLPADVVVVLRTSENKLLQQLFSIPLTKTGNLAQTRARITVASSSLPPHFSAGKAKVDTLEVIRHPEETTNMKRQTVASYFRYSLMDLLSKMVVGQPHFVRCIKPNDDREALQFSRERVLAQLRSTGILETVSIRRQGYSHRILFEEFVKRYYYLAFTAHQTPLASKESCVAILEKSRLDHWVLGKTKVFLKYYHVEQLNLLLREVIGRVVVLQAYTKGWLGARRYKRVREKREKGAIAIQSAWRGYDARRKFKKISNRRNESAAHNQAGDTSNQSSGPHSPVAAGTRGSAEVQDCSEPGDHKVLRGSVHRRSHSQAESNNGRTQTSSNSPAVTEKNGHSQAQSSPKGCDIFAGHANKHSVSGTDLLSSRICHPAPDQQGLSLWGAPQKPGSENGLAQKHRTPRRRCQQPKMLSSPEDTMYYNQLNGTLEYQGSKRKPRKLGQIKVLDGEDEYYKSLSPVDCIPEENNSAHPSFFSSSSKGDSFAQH
# Assay: Binding affinity to human MYO3B assessed as dissociation constant by KdELECT Discover assay
structure (smiles),measurement,value
CN1CCN(C(=O)c2ccc3cc(CCNc4ccnc5ccc(C#N)cc45)ccc3c2)CC1,Kd,> 30 µM
